Experimental data from ChEMBL document CHEMBL4177747, “1,5-Disubstituted 1,2,3-triazole linked disaccharides: Metal-free syntheses and screening of a new class of ribonuclease A inhibitors” (Bioorg Med Chem, 2018).
Calls of active or inactive are those of the source. The calls are words filed in the database; no cut-off is given here.

What was measured:
Homo sapiens [1] = species on record: Homo sapiens; experiment: Inhibition of RNase A (unknown origin) assessed as reduction in tRNA substrate degradation at 0.35 to 0.5 mM pretreated for 3 hrs followed by substrate addition measured after 30 mins by ethidium bromide staining based agarose gel electrophoresis
Homo sapiens [2] = species on record: Homo sapiens; experiment: Inhibition of RNase A (unknown origin) assessed as reduction in tRNA substrate degradation at 0.1 to 0.15 mM pretreated for 3 hrs followed by substrate addition measured after 30 mins by ethidium bromide staining based agarose gel electrophoresis
[3] = Inhibition of RNase A (unknown origin) using varying levels of 2',3'-cCMP as substrate by Lineweaver-burk plot analysis; set-up: species or system Homo sapiens
Homo sapiens [4] = species on record: Homo sapiens; experiment: Inhibition of RNase A (unknown origin) assessed as reduction in tRNA substrate degradation at 0.6 to 1 mM pretreated for 3 hrs followed by substrate addition measured after 30 mins by ethidium bromide staining based agarose gel electrophoresis
Homo sapiens [5] = species on record: Homo sapiens; experiment: Inhibition of RNase A (unknown origin) assessed as reduction in tRNA substrate degradation at 0.1 to 0.2 mM pretreated for 3 hrs followed by substrate addition measured after 30 mins by ethidium bromide staining based agarose gel electrophoresis
Homo sapiens [6] = species on record: Homo sapiens; experiment: Inhibition of RNase A (unknown origin) assessed as reduction in tRNA substrate degradation at 0.25 to 0.3 mM pretreated for 3 hrs followed by substrate addition measured after 30 mins by ethidium bromide staining based agarose gel electrophoresis

SMILES	inhibition (Homo sapiens [1])	inhibition (Homo sapiens [2])	Ki [3]	inhibition (Homo sapiens [4])	inhibition (Homo sapiens [5])	inhibition (Homo sapiens [6])
CC1(C)O[C@H]2O[C@H](Cn3nncc3[C@H]3O[C@@H]4OC(C)(C)O[C@@H]4[C@H]3OCc3ccccc3)[C@H](O)[C@H]2O1	Active	Active	563 µM	Active	Active	Active
Cc1cn([C@@H]2O[C@H](C(=O)N[C@H](CC(=O)O)C(=O)N[C@H]3C[C@H](n4cc(C)c(=O)[nH]c4=O)O[C@@H]3CO)[C@@H](O)[C@H]2O)c(=O)[nH]c1=O			66 µM			
